Assay results reported in US20250177292A1, “METHOD FOR TREATMENT OF PARKINSON'S DISEASE” (NeuroDerm, Ltd., priority 2013, published 2025).
Blank lines part the entries; values can stand above or below the compound they belong to.

Assays:
pig skin = assay: Continuous administration into full-thickness pig skin ex vivo (FIG. 1B); conditions: 7% LD/arginine solution with 2% CD, 0.08 ml/h×18 h, 37° C.
Procedure: (§1) FIGS. 1A-1B show the effect of carbidopa on the stability of levodopa in vitro and ex vivo: 1A. 6% by weight levodopa and arginine solution with various concentrations (2, 1.5, 1, 0.5%) of carbidopa or no carbidopa were tested for physical stability in vitro. […] 1B. 7% by weight levodopa and arginine solution, with or without 2% carbidopa by weight, continuously administered in to the subcutaneous tissue of a 5×5 cm fresh, full-thickness pig skin.
A 7% LD/arginine solution, with or without 2% CD, was continuously administered at 0.08 ml/h×18 h, 37° C. into a 5×5 cm fresh, full-thickness pig skin.

pigs = conditions: pig, in vivo, sc
Procedure: The effect of carbidopa on levodopa local toxicity was investigated in pigs: solutions containing 6% LD and 0, 0.5 or 1% CD with the respective amount of arginine (13.5, 14.2 or 14.8%, respectively) were continuously administered SC to pigs at 0.16 ml/h×24 h. Each formulation was administered to 2 pigs. Skin samples were collected 8±1 days thereafter.

[1] = Effect of carbidopa on stability of levodopa formulations in vitro (Tables F, G, FIG. 1A); type: physicochemical
Procedure: as §1, with “6%” for “FIGS. 1A-1B show the effect of carbidopa on the stability of levodopa in vitro and ex vivo: 1A. 6%”
The effect of carbidopa on levodopa formulations was investigated. Levodopa (LD) formulations were prepared with 0, 0.5, 1, 1.5 and 2% by weight carbidopa (CD) and a constant concentration of arginine.
In an additional experiment, LD formulations were prepared with 0, 0.5, 1 and 2% CD and respective concentrations of arginine.

[2] = Stability of carbidopa formulations with and without levodopa (Table H); type: physicochemical; conditions: in the presence of LD
Description: The effect of levodopa on the stability of carbidopa was investigated. Table H indicates results.
It appears that LD may protect CD from degradation.

[3] = Plasma LD, CD and 3-OMD during continuous SC LD/CD with oral entacapone in human volunteers (FIG. 6); type: in vivo, human
Procedure: A single center, double-blind, randomized, placebo-controlled, study was conducted with six healthy Caucasian males volunteers, aged 18-40 years old. LD (6%)/CD (1.5%) was administered at a rate of […], corresponding to 360 mg of LD and 90 mg of CD per 24 hours. […] Plasma LD, CD and 3-OMD concentrations were quantified at pre-determined time points.

[4] = cited from earlier work
[5] = cited from earlier work; remark: listed apart in the source
[6] = Titration with acetic or lactic acid: pH and physical stability (Table D); type: physicochemical
Description: Formulations containing 6/1.5% and 5.4/1.5% LD/CD and varying L-Arg concentrations were titrated with acetic acid (100%) or lactic acid (85%), to study the effect of pH and L-Arg concentration on the physical stability of the solutions (Table D).

SMILES: C[C@@](Cc1ccc(O)c(O)c1)(NN)C(=O)O [CD, carbidopa]
Oxidation of LD ex vivo (black by-products) (pig skin): lack of black by-products formation
Oxidation of LD ex vivo (black by-products) (pig skin; listed as carbidopa): inhibition of oxidation
Local levodopa dependent subcutaneous toxicity (pigs): reduces the severity and extent
Effect on the chemical stability of levodopa ([1]; Table F): does not have a significant effect
Dark yellow color formation ([1]; in the absence of air (N2 in the head space), 0.5% carbidopa): sufficient to inhibit this color formation
Dark yellow color formation ([1]; in the presence of air, 6% levodopa and arginine solution with 0.5-2% carbidopa): prevented dark yellow color formation
Sensitivity of CD to oxidation and degradation [2]: more stable in the presence of LD

SMILES: CCN(CC)C(=O)/C(C#N)=C/c1cc(O)c(O)c([N+](=O)[O-])c1 [E, entacapone]
Steady state of plasma concentrations of LD ([3]; 24 hours after LD/CD infusion initiation, 9 hours after entacapone dosing initiation): did not reach a steady state
Plasma concentrations of 3-OMD ([3]; human, in vivo): significantly reduced
Blood level of levodopa ([3]; male, human, in vivo): about 620 ng/ml
Increase of the blood level of levodopa ([3]; male, human, in vivo): more than 40%
Increase in the level of levodopa ([4]; according to Nyholm et al.): up to 33%
Reduction of the dose of levodopa and carbidopa maintaining the desired blood level of levodopa ([4]; oral 200 mg entacapone, intraintestinal infusion of levodopa and carbidopa): 20%
Highest increase in the total amount of levodopa ([5]; after 400 mg dose of entacapone, oral levodopa and carbidopa): about 33%
Total amount of carbidopa in blood ([5]; high doses of entacapone (400 mg and 800 mg)): decrease the total amount of carbidopa in blood

Reduction of the pH as compared to Na-ascorbate [6]: 0.1-0.15 units
SMILES: O=C1O[C@H]([C@@H](O)CO)C(O)=C1O [ascorbic acid]
